{
  "source": "patent US8507440B2",
  "about": "“Protein kinase C peptides for use in withdrawal” (The Board of Trustees of the Leland Stanford Junior …, priority 2002, dated 2013)",
  "key": {"[1]": {"test_system": "isolated spinal cords", "experiment": "slow ventral root potential (sVRP) of isolated spinal cord, naloxone-precipitated morphine withdrawal hyperresponsiveness", "format": "cell-based, rat", "conditions": "for sVRP area 30 minutes after naloxone / block of naloxone-precipitated withdrawal hyperresponsiveness of sVRP: morphine 200 nM then naloxone 200 nM, GF109203X 1.2 μM, Go6976 1 μM, εV1-2 2 nM; for block of naloxone-precipitated withdrawal hyperresponsiveness of sVRP: γV5-3 4 nM, Tat 2-4 nM", "source_text": "The slow ventral root potential (sVRP) is an electrophysiolgical measurement of nociceptive-related response in the spinal cord lasting approximately 40 seconds (Yanagisawa et al., Eur. J. Pharmacol., 106:231-239 (1984); Akagi H. et al., British J. Pharmacol., 84:663-673 (1985); Otsuka M. et al., J. Physiol., 395:255-270 (1988)). It is evoked by stimulation of a lumbar dorsal root at an intensity sufficient to activate small diameter afferents that transmit nociceptive (painful) stimuli from the periphery to the spinal cord (Lozier A. P. et al., J. Neurophysiol., 74:1001-1009 (1995)). […] Thus, the sVRP is related to pain, and its exaggeration following naloxone is a manifestation of withdrawal which translates to an increase in pain sensation in vivo.\nSpinal cords from 4-7 day old rats (Charles River Laboratories) were removed and arranged for electrophysiological recording of the slow ventral root potentials (sVRP) (Woodley S. J., et al., Brain Res., 559:17-21 (1991). Briefly, pups were decapitated under halothane anesthesia and the spinal cord removed to an oxygenated artificial cerebrospinal fluid solution. A suction stimulating electrode was placed on a lumbar dorsal root and a suction recording electrode on the corresponding ipsilateral ventral root. Square wave stimuli 0.2 ms in duration were administered at a constant frequency of 1/50 seconds throughout the experiment. Test agents were applied and the responses were recorded, digitized, and area under the curve measured.\nAfter a baseline reading of the sVRP, morphine (200 nM) was applied to the isolated spinal cords. The sVRP was again recorded to characterize the response to morphine. Naloxone (200 nM) was then applied and the sVRPs recorded.\nFIGS. 2A-2D show the results after application of non-specific PKC antagonist, GF109203X (1.2 μM), and of an inhibitor specific to Ca++-dependent PKC isoforms, Go6976 (1 μM).\nFIGS. 3A-3B show the results after application of the εPCK antagonist (εV1-2; SEQ ID NO:1, 2 nM), conjugated to a peptide carrier (Tat; SEQ ID NO:3) and the Tat peptide alone (2 nM; SEQ ID NO:3). FIGS. 3C-3D show the results after application of γPKC (γV5-3; SEQ ID NO:2, 4 nM) conjugated to a peptide carrier (Tat; SEQ ID NO:3) and of the Tat peptide alone (4 nm; SEQ ID NO:3)."}, "[2]": {"test_system": "postnatal day 7 rats", "experiment": "naloxone-precipitated morphine withdrawal, mechanical threshold and thermal paw withdrawal latency in vivo", "set-up": "species or system rat", "conditions": "for block of naloxone-precipitated morphine withdrawal allodynia and hyperalgesia: 10 μM in 5 μl intrathecally prior to morphine 1 mg/kg s.c., naloxone 0.25 mg/kg 30 min after morphine", "protocol": "In vivo studies on opiate withdrawal allodynia and hyperalgesia were conducted using postnatal day 7 rats. As described in Example 2, postnatal day 7 rats were given morphine subcutaneously followed 30 minutes later by naloxone or saline. Mechanical threshold using von Frey filaments to produce the flexion withdrawal response of the hind paw and thermal stimulation to measure the paw withdrawal latency were measured as described in Example 2.\nFIG. 5A illustrates a treatment protocol where rat pups were given a PKC antagonist intrathecally (e.g., directly into the cerebrospinal fluid surrounding the spinal cord) prior to subcutaneous morphine delivery. Thirty minutes after morphine delivery, naloxone was administered, followed by mechanical allodynia and thermal hyperalgesia testing (as described in Example 2).\nPostnatal day 7 Sprague-Dawley rats (Charles River Laboratories) of both sexes were used. For all behavioural experiments rats were maintained at nesting temperature with overhead heatlamps.\nTo measure mechanical thresholds, rats were placed on an elevated wire mesh (2 mm openings). Von Frey hairs (Stoelting Co., WoodDale, Ill., USA) were used to elicit a cutaneous flexion withdrawal response as described by Fitzgerald et al. (Fitzgerald M., et al., PAIN […] INFANTS, CHILDREN AND ADOLESCENTS; Schetchter and Yaster, Eds., pp 11-32, Williams and Williams (Baltimore, Md.) (1993). Von Frey hairs of increasing intensity were applied three times to the plantar surface of the left hind paw until a paw withdrawal was elicited. The lowest intensity Von Frey hair required to produce a withdrawal reflex was recorded as the response threshold to a low-intensity mechanical stimulus.\nThermal paw withdrawal latencies were measured using the Ugo Basile Plantar Testing apparatus (Stoelting Co., WoodDale, Ill., USA). Briefly, postnatal day 7 rats were placed under inverted Plexiglas enclosures and the plantar surface of the left hindpaw was heated from below with the IR intensity of the lamp set at 30. Two baseline thermal response latency measures were collected prior to morphine administration with a cut-off of 20 seconds enlisted to prevent tissue damage.\nPostnatal day 7 rats were administered 1 mg/kg morphine sulfate (Sigma) subcutaneously in 50 μl saline. Mechanical thresholds were measured 15 minutes later to establish analgesia. Rats were returned to their dam. At 30 or 120 minutes post morphine, rats were administered 0.25 mg/kg naloxone (Sigma) subcutaneously in 50 μl saline. Mechanical thresholds and thermal paw withdrawal latencies were measured in 10 minute intervals. Tat conjugated peptide inhibitors specific to the ε (εV1-2; SEQ ID NO:1, 10 μM) and γ ([…]; SEQ ID NO:2, 10 μM) isoforms of PKC, Tat carrier (10 μM), or saline were administered in 5 μl volumes intrathecally via direct lumbar puncture using a sterile 29 gauge 3/10 cc insulin syringe in rats lightly anesthetized with halothane. To allow for complete recovery from anesthetic, animals were administered peptides or control solutions 30 minutes prior to naloxone.\nAn unpaired T-test was used to determine the significance of post-naloxone measures from baseline measures. Significance between treatment groups for PKC inhibitor studies both in vivo and in vitro was determined by one way analysis of variance (ANOVA) followed by a post-hoc Bonferroni analysis. P-values<0.05 were considered significant. All statistical analysis was done with GraphPad Prism version 3.02."}, "[3]": {"test_system": "N-methyl-D-aspartate (NMDA) receptor currents", "experiment": "alcohol withdrawal hyperresponsiveness of NMDA-evoked currents in lumbar spinal cord slice motor neurons", "format": "cell-based, rat", "source_text": "Spinal cords were taken from young rats, and slices of these cords were made and placed in artificial cerebrospinal fluid for patch clamp electrophysiological analysis, to characterize the ability of γPKC peptides to mediate alcohol withdrawal hyperresponsiveness of N-methyl-D-aspartate (NMDA) receptor currents. FIG. 7A is a schematic diagram of the technique, where a lumbar spinal cord slice 10 is shown. The placement of a recording electrode 12 and a pipette 14 for application of NMDA relative to a motor neuron 16 is illustrated.\nSprague-Dawley rats at postnatal day 7-10 were anesthetized with halothane, decapitated, and the spinal cords were quickly removed. Slices […] thick were sectioned from the lumbar region. Whole cell voltage clamp recordings were made from visually-identified motor neurons using infrared video microscopy, a 60× water immersion lens, and a MultiClamp 700A patch clamp amplifier. Cells were held at a holding potential of −60 mV in artificial cerebrospinal fluid (ACSF) containing bicuculline methiodide ([…]), strychnine ([…]), and tetrodotoxin ([…]). Postsynaptic currents were evoked by direct pressure application of 2 mM N-methyl-D-aspartate (NMDA) from a pipette positioned near the recorded cell at 1-2 min intervals, as illustrated in FIG. 7A. The area of evoked currents during and following 100 mM ethanol (EtOH) application was measured and normalized to the average baseline current area during the 10 minutes preceding EtOH application. Data are expressed as mean +/−SEM: Statistical significance was determined by one-way ANOVA followed by Dunn's or Tukey's multiple comparison test with significance set at p<0.05."}, "[4]": {"test_system": "7 day old and 21 day old rats", "experiment": "ethanol withdrawal thermal hyperalgesia testing (paw withdrawal latency)", "format": "in vivo, rat", "conditions": "7 day old rats; intrathecally 4 hours after 4 g/kg 15% EtOH"}, "[5]": {"test_system": "7 day old and 21 day old rats", "experiment": "ethanol withdrawal mechanical allodynia testing (von Frey threshold withdrawal force)", "format": "in vivo, rat"}},
  "note": "Ends that are not written are not given here.",
  "data": [
    {"compound": "C=CCN1CC[C@]23c4c5ccc(O)c4O[C@H]2C(=O)CC[C@@]3(O)[C@H]1C5", "note": "[naloxone]", "values": [
      {"measurement": "sVRP area 30 minutes after naloxone", "setting": "[1]", "result": "140.9 % of control"},
      {"measurement": "mechanical threshold and paw withdrawal latency, naloxone after morphine", "setting": "[2]; naloxone 0.25 mg/kg s.c. following 30 minutes of morphine exposure", "result": "precipitated mechanical allodynia and thermal hyperalgesia"},
      {"measurement": "mechanical threshold and paw withdrawal latency, naloxone alone", "setting": "[2]; no morphine", "result": "did not alter paw withdrawal thresholds to mechanical stimulation or paw withdrawal latency to thermal stimulation"}
    ]},
    {"compound": "COc1ccc2c(c[n+](C)c3c4cc5c(cc4ccc23)OCO5)c1OC", "note": "[chelerythrine]", "values": [
      {"measurement": "sVRP area 30 minutes after naloxone", "setting": "[1]", "result": "100.1 % of control"},
      {"measurement": "block of naloxone-precipitated withdrawal hyperresponsiveness of sVRP", "setting": "[1]", "result": "did block morphine withdrawal"},
      {"measurement": "effect on the response to morphine", "setting": "[1]; morphine-exposed spinal cords", "result": "did not alter the response to morphine"}
    ]},
    {"compound": "Tat: Tat-derived carrier peptide (Tat 47-57), control for the conjugated inhibitors", "values": [
      {"measurement": "block of naloxone-precipitated withdrawal hyperresponsiveness of sVRP", "setting": "[1]", "result": "did not block the withdrawal response"},
      {"measurement": "effect on ethanol withdrawal hyperresponsiveness of NMDA-evoked currents", "setting": "[3]; 10 nM Tat carrier alone", "result": "does not prevent the symptom"},
      {"measurement": "block of naloxone-precipitated morphine withdrawal allodynia and hyperalgesia", "setting": "[2]", "result": "did not prevent allodynia and hyperalgesia"}
    ]},
    {"compound": "CN(C)CCCn1cc(C2=C(c3c[nH]c4ccccc34)C(=O)NC2=O)c2ccccc21", "note": "[GF109203X]", "values": [
      {"measurement": "sVRP area 30 minutes after naloxone", "setting": "[1]", "result": "87 % of control"},
      {"measurement": "block of naloxone-precipitated withdrawal hyperresponsiveness of sVRP", "setting": "[1]", "result": "blocked the withdrawal hyperresponsivess"}
    ]},
    {"compound": "O=C(O)CN(CC(=O)O)c1ccccc1OCCOc1ccccc1N(CC(=O)O)CC(=O)O", "note": "[BAPTA, 1,2-bis(2-aminophenoxy)ethane-N,N,N′,N′-tetraacetic acid, reference compound]", "values": [
      {"measurement": "ethanol withdrawal hyperresponsiveness of NMDA-evoked currents with calcium chelator", "setting": "[3]; 30 mM in recording pipette", "result": "no ethanol-withdrawal hyperresponsiveness"}
    ]},
    {"compound": "CN1CC[C@]23c4c5ccc(O)c4O[C@H]2[C@@H](O)C=C[C@H]3[C@H]1C5", "note": "[morphine]", "values": [
      {"measurement": "effect of morphine on sVRP", "setting": "[1]; morphine 200 nM", "result": "depressed"},
      {"measurement": "paw withdrawal threshold and latency after morphine", "setting": "[2]; morphine 1 mg/kg s.c., then saline", "result": "exhibited profound analgesia"}
    ]},
    {"compound": "εV1-2: εPKC antagonist peptide, SEQ ID NO:1, isozyme-specific translocation inhibitor, used Tat-conjugated (EAVSLKPT; also: Tat peptide conjugate; listed as Homo sapiens)", "values": [
      {"measurement": "thermal hyperalgesia, paw withdrawal latency", "setting": "[4]", "result": "completely prevented thermal hyperalgesia"},
      {"measurement": "mechanical allodynia, threshold withdrawal force", "setting": "[5]; 7 day old rats, 5 μL of 20 μM intrathecally 5 hours after 4 g/kg 15% EtOH i.p., 6 and 7 hour post-EtOH, versus Tat carrier", "result": "attenuated mechanical allodynia"},
      {"measurement": "mechanical allodynia, threshold withdrawal response", "setting": "[5]; 21 day old rats, 10 μL of 20 μM intrathecally 4 hours after 4 g/kg 15% EtOH i.p.", "result": "slightly attenuated the response at 6 hours and 8 hours post ethanol injection"},
      {"measurement": "effect on sVRP of inhibitor alone", "setting": "[1]; absence of morphine", "result": "did not alter the sVRP"},
      {"measurement": "sVRP area 30 minutes after naloxone", "setting": "[1]", "result": "102 % of control"},
      {"measurement": "block of naloxone-precipitated withdrawal hyperresponsiveness of sVRP", "setting": "[1]", "result": "blocked withdrawal hyperresponsiveness"},
      {"measurement": "block of naloxone-precipitated morphine withdrawal allodynia and hyperalgesia", "setting": "[2]", "result": "effective to block naloxone-precipitated morphine withdrawal allodyina and hyperalgesia"}
    ]},
    {"compound": "Cn1c2ccccc2c2c3c(c4c5ccccc5n(CCC#N)c4c21)CNC3=O", "note": "[Go6976]", "values": [
      {"measurement": "sVRP area 30 minutes after naloxone", "setting": "[1]", "result": "127.4 % of control"},
      {"measurement": "block of naloxone-precipitated withdrawal hyperresponsiveness of sVRP", "setting": "[1]", "result": "did not block withdrawal"}
    ]}
  ]
}
